From patent publication US12465652B2 (AMGEN INC., priority 2017, dated 2025) come the findings set out here.

Assay [1] has as its target T1, human GLP-IR (Homo sapiens, UniProt P43220). Nature of the assay: GLP1 activity | EC50 (pM). From the text:
Table printed on a drawing sheet, FIG. 1A
Head of the field: GLP1 activity | EC50 (pM)
The patent's description of the figure: FIG. 1A-1B: Synthetic Peptides (FIG. 1A discloses SEQ ID NOS 3948 and 3275-3298 and FIG. 1B discloses SEQ ID NOS 3948 and 3299-3302, all respectively, in order of appearance)
First copying reader's note: The first head row prints a reference sequence (residues at positions 7-35) above the position numbers; two fully empty rows separate groups of peptides.
Where the first naming reader finds the target: passage: CHOK1 cells stably expressing the human GLP-IR were used to measure peptide or recombinant fusion-induced cAMP production

Assay [2] addresses T1, human GLP-IR. Nature of the assay: GLP1 activity | EC50 (M). The text has this:
Table printed on a drawing sheet, FIG. 1A Head of the field: GLP1 activity | EC50 (M) The patent's description of the figure: FIG. 1A-1B: Synthetic Peptides (FIG. 1A discloses SEQ ID NOS 3948 and 3275-3298 and FIG. 1B discloses SEQ ID NOS 3948 and 3299-3302, all respectively, in order of appearance) First copying reader's note: The first head row prints a reference sequence (residues at positions 7-35) above the position numbers; two fully empty rows separate groups of peptides. Where the first naming reader finds the target: passage: CHOK1 cells stably expressing the human GLP-IR were used to measure peptide or recombinant fusion-induced cAMP production

T1 sequence (P43220 24-463 limits assumed): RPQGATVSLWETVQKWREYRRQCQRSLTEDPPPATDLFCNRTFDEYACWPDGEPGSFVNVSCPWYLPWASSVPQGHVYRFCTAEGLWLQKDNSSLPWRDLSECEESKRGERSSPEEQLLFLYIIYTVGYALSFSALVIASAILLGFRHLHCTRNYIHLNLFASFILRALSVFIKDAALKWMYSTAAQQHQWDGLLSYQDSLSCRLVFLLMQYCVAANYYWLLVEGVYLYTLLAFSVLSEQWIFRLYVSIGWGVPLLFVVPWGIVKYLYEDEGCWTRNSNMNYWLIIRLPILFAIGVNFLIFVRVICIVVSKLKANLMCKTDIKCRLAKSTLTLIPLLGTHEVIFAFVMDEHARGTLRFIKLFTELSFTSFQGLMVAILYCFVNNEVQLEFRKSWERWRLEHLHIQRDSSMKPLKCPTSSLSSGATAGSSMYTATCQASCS

With `CC[C@H](C)[C@H](NC(=O)[C@H](Cc1ccccc1)NC(=O)[C@H](CCC(=O)O)NC(=O)[C@H](CCCCN)NC(=O)[C@H](C)NC(=O)[C@H](C)NC(=O)[C@H](CCC(N)=O)NC(=O)CNC(=O)[C@H](CCC(=O)O)NC(=O)[C@H](CC(C)C)NC(=O)[C@H](Cc1ccc(O)cc1)NC(=O)[C@H](CO)NC(=O)[C@H](CO)NC(=O)[C@@H](NC(=O)[C@H](CC(=O)O)NC(=O)[C@H](CO)NC(=O)[C@@H](NC(=O)[C@H](Cc1ccccc1)NC(=O)[C@@H](NC(=O)CNC(=O)[C@H](CCC(=O)O)NC(=O)CNC(=O)[C@H](Cc1c[nH]cn1)NC(=O)[C@@H](N)Cc1c[nH]cn1)[C@@H](C)O)[C@@H](C)O)C(C)C)C(=O)N[C@@H](C)C(=O)N[C@@H](Cc1c[nH]c2ccccc12)C(=O)N[C@@H](CC(C)C)C(=O)N[C@H](C(=O)N[C@@H](CCCCN)C(=O)NCC(=O)O)C(C)C` [3166962#1, HHGEGTFTSDVSSYLEGQAAKEFIAWLVKG], the EC50 in assay [1] worked out at 0.363 nM.
With `CC[C@H](C)[C@H](NC(=O)[C@H](Cc1ccccc1)NC(=O)[C@H](CCC(=O)O)NC(=O)[C@H](CCCCN)NC(=O)[C@H](C)NC(=O)[C@H](C)NC(=O)[C@H](CCC(N)=O)NC(=O)CNC(=O)[C@H](CCC(=O)O)NC(=O)[C@H](CC(C)C)NC(=O)[C@H](Cc1ccc(O)cc1)NC(=O)[C@H](CO)NC(=O)[C@H](CO)NC(=O)[C@@H](NC(=O)[C@H](CC(=O)O)NC(=O)[C@H](CO)NC(=O)[C@@H](NC(=O)[C@H](Cc1ccccc1)NC(=O)[C@@H](NC(=O)CNC(=O)[C@H](CCC(=O)O)NC(=O)CNC(=O)[C@H](Cc1c[nH]cn1)NC(=O)CN)[C@@H](C)O)[C@@H](C)O)C(C)C)C(=O)N[C@@H](C)C(=O)N[C@@H](Cc1c[nH]c2ccccc12)C(=O)N[C@@H](CC(C)C)C(=O)N[C@H](C(=O)N[C@@H](CCCCN)C(=O)NCC(=O)O)C(C)C` [3166961#1, GHGEGTFTSDVSSYLEGQAAKEFIAWLVKG], a half-maximal effect in assay [1] (EC50) was put at 0.205 nM.
Consider `CC[C@H](C)[C@H](NC(=O)[C@H](Cc1ccccc1)NC(=O)[C@H](CCC(=O)O)NC(=O)[C@H](CCCCN)NC(=O)[C@H](C)NC(=O)[C@H](C)NC(=O)[C@H](CCC(N)=O)NC(=O)CNC(=O)[C@H](CCC(=O)O)NC(=O)[C@H](CC(C)C)NC(=O)[C@H](Cc1ccc(O)cc1)NC(=O)[C@H](CO)NC(=O)[C@H](CO)NC(=O)[C@@H](NC(=O)[C@H](CC(=O)O)NC(=O)[C@H](CO)NC(=O)[C@@H](NC(=O)[C@H](Cc1ccccc1)NC(=O)[C@@H](NC(=O)CNC(=O)[C@H](CCC(=O)O)NC(=O)CNC(=O)[C@H](Cc1c[nH]cn1)NC(=O)[C@H](C)N)[C@@H](C)O)[C@@H](C)O)C(C)C)C(=O)N[C@@H](C)C(=O)N[C@@H](Cc1c[nH]c2ccccc12)C(=O)N[C@@H](CC(C)C)C(=O)N[C@H](C(=O)N[C@@H](CCCCN)C(=O)NCC(=O)O)C(C)C` [3166749#1, AHGEGTFTSDVSSYLEGQAAKEFIAWLVKG], for which, in assay [2], a half-maximal response (EC50) required 0.0669 nM.

The EC50 is the concentration that produces a half-maximal response.
